Test results taken from article doi:10.1101/2025.02.17.638454, “Synergistic RAS-MAPK and AKT Activation in MYC-Driven Tumors via Adjacent PVT1 Rearrangements” (bioRxiv, 2025).
No end group written: not given here.

Columns and labels:
KRAS dimerization = test: Acceptor photobleaching FRET of CFP-KRAS/YFP-KRAS in D458; assay type: cell-based; conditions: shRNA1.PVT1ts D458 with doxycycline-induced HNB; n=10, one-way ANOVA
Protocol: pcDNA3.1 CFP-KRAS (#112717) and pcDNA3.1 YFP-KRAS (#112718) were purchased from Addgene. The plasmids were co-transfected into D458 cells in a 35 mm cell culture dish with glass bottom. The cells were imaged live 48 hours after transfection on the Nikon Super Resolution Confocal Microscope. CFP was excited using 405–445nm laser and YFP was excited using the 514 nm laser. YFP was photobleached at 80% power for 1 minute and the CFP and YFP were imaged after photobleaching using the respective laser and filters. The images were analyzed in Fiji, ImageJ. […]
(§1) bioRxiv preprint doi: https://doi.org/10.1101/2025.02.17.638454; this version posted February 22, 2025. The copyright holder for this preprint (which was not certified by peer review) is the author/funder, who has granted bioRxiv a license to display the preprint in perpetuity. It is made available under a CC-BY 4.0 International license .
Supplementary Figure 22: HNB regulates KRAS dimerization (A) Schematic representation of KRAS dimerization using acceptor photobleaching FRET assay. (B) Schematic representation of KRAS dimerization on knocking down HNB using shRNA1-PVT1ts. (C) Representative images showing signals for CFP-KRAS and YFP-KRAS. […]
Images were taken at 60X oil; the scale bar is 10µm. […] (p-value calculated by one-way ANOVA, n=10). […] (p-value calculated by one-way ANOVA, n=10). […]

[1] = tested on: HALLMARK_MTORC1_SIGNALING; test: GSEA MTORC1 signaling, SK-PN-DW; assay type: cell-based, human; conditions: si.CircPVT1 vs si.Ctrl, n=3, Padj = 0.010
From the text: RNAseq processing: Raw reads were mapped to the hg19 human reference genome using the STAR aligner (v.2.5.0a) 66. PCR-duplicated reads and low mapping quality reads (MQ score below 20) were removed using Picard tools and SAMtools, respectively. Aligned reads were counted using htseq-count (v.0.6.1p1) 69 and normalized according to size factors method from DESeq2 70. We used fold change ≥2 and FDR <0.05 as the determination of differentially expressed genes (DEG). Statistical analysis and plots were performed inside R environment version 3.1.0. upload files) […]
as §1, with “license . […]” for “license .”
Supplementary Figure 11: Gene set enrichment analysis scores (GSEA) analysis of genes involved in MTORC 1 signaling in COLO320DM (A) and SK-PN-DW (B) treated with si.CircPVT 1. si.Ctrl was used as control. n=3, for each treatment condition .
(also on this page, place not known: SK-PN-DWB MTORC1 si.CircPVT1. condition. Enrichment Score Enrichment Score .CC-BY licenseavailable preprintthis https://doi.org/10.1101/2025.02.17.638454doi:) […]

| Substance | CFP (donor) fluorescence after photobleaching of YFP (KRAS dimerization) | NES, HALLMARK_MTORC1_SIGNALING [1] |
| --- | --- | --- |
| MKTQLGAVKGFLHV [HNB] | mitigated the augmented CFP fluorescence | – |
| si.CircPVT1: siRNA targeting the junction sequence of CircPVT1, 5’-UGGGCUUGAGGCCUGAUCUUU-3’ (other strand not given here) | – | -1.859 |
